# In patent US8445509B2, “Fused heterocyclic derivatives and use thereof” (Takeda Pharmaceutical Company Limited, priority 2008, dated 2013):
# Key:
# MV-4-11 cells = test: Antitumor test, MV-4-11 transplanted nude mouse; type: in vivo, nude mouse (BALB/c nu/nu); details: MV-4-11, dose 2 mg/kg, orally, 14 consecutive days
# Description: (§1) Cancer cells were cultured in a culture medium containing 10% bovine fetal serum in an incubator at 37° C., 5% CO2. MKN-45 cells were treated with trypsin/EDTA and isolated. MKN-45 and MV-4-11 cells were washed with HBSS (HANK's Balanced Saline Solution). When MKN-45 cells were transplanted, they were adjusted with HBSS to a cell density of 1.2×10^8 cells/mL, and transplanted by subcutaneous injection of 0.05 mL of a mixed suspension (3×10^6 cells) of the cell suspension and the same amount of Matrigel into the abdomen of 6 or 7-week-old female nude mouse (BALB/c nu/nu, CLEA Japan, Inc.). When MV-4-11 cells were transplanted, they were adjusted with HESS to a cell density of 1.2×10^8 cells/mL, and transplanted by subcutaneous injection of 0.05 mL of a mixed suspension (3×10^6 cells) of the cell suspension and the same amount of Matrigel into the abdomen of 7-week-old female nude mouse (BALB/c nu/nu, CLEA Japan, Inc.). When the average tumor volume reached 100-250 mm^3, the mice were grouped, and various doses of test substance were orally administered for 14 consecutive days starting from the next day. The length of the major axis and the length of the minor axis of the tumor were measured over time and the tumor volume was calculated by tumor volume=major axis length×minor axis length×minor axis length×0.5. The ratio of an increase in the average tumor volume of the control group to an increase in the average tumor volume of the drug administration group was taken as the tumor growth rate (%) of the drug administration group. Table 5 showned MKN-45 tumor growth rate (%) and table 6 showned MV-4-11 tumor growth rate (%).
# MKN-45 cells = test: Antitumor test, MKN-45 transplanted nude mouse; type: in vivo, nude mouse (BALB/c nu/nu); details: MKN-45, dose 2 mg/kg, orally, 14 consecutive days
# Description: as §1
compound,measurement,setting,value
"Cc1ccc(C(=O)Nc2ccc(Oc3ccc4nc(NC(=O)C5CC5)cn4c3)c(F)c2)c(=O)n1-c1ccc(F)cc1.Cl [Example 32, N-[4-({2-[(cyclopropylcarbonyl)amino]imidazo[1,2-a]pyridin-6-yl}oxy)-3-fluorophenyl]-1-(4-fluorophenyl)-6-methyl-2-oxo-1,2-dihydropyridine-3-carboxamide hydrochloride]",tumor growth rate (%),MV-4-11 cells,<0%
same,tumor growth rate (%),MKN-45 cells,14%
